# Measurements: publication PMC4657098, “A Review of the Updated Pharmacophore for the Alpha 5 GABA(A) Benzodiazepine Receptor Model” (International Journal of Medicinal Chemistry, 2015)
# Values joined by “and” are separate entries in the source; they are usually repeats but may differ in a detail not shown here. Identical values can stand only once. Like-named read-outs stand apart in the source and are kept apart here.
# Key:
# α4β3γ2 GABAA/BzR = target: T1, α4β3γ2 GABAA/BzR (Homo sapiens, UniProt P18507+P48169); conditions: Figure 33; αxβ3γ2; read-out: Affinity Ki α4; cited from earlier work
# T1 construct: expressed in transfected cells; host or cells: LTK cells (given for XLi-093 only)
# [1] = test system: alcohol preferring and HAD rats; conditions: cited from earlier work
# baboons = conditions: cited from earlier work
# [2] = test system: Bz BS of GABA(A) receptors; conditions: cited from earlier work
# α6β3γ2 GABAA/BzR [3] = target: T2, α6β3γ2 GABAA/BzR (Homo sapiens, UniProt P18507+Q16445); test: Competition binding to HEK cell membranes, α6β3γ2; set-up: expressed in transfected cells
# α6β3γ2 GABAA/BzR [4] = target: T2, α6β3γ2 GABAA/BzR; set-up: expressed in transfected cells; host or cells: LTK cells (given for XLi-093 only); conditions: cited from earlier work
# AD rat model = test: Spatial water maze task in AD rat model; type: in vivo; conditions: relative to vehicle, p < 0.05
# Description: It is well known many Down syndrome patients develop Alzheimer's disease or a dementia with a very similar etiology.
# α1β3γ2 GABAA receptor = conditions: cited from earlier work
# α2β3γ2 GABAA receptor = conditions: cited from earlier work
# α3β3γ2 GABAA receptor = conditions: cited from earlier work
# α5β3γ2 GABAA receptor = target: T3, α5β3γ2 GABAA receptor (Homo sapiens, UniProt P18507+P31644); conditions: cited from earlier work
# T3 construct: expressed in transfected cells; host or cells: Xenopus oocytes
# mice = conditions: mice; ref Harris, DeLorey et al.; cited from earlier work
# rats = conditions: cited from earlier work
# rhesus monkeys = conditions: cited from earlier work
# α1β3γ2 GABAA/BzR [5] = target: T4, α1β3γ2 GABAA/BzR (Homo sapiens, UniProt P14867+P18507); test: Competition binding to HEK cell membranes, α1β3γ2; set-up: expressed in transfected cells; conditions: Table 2; data from three separate laboratories; read-out: Affinity Ki α1
# α2β3γ2 GABAA/BzR [6] = target: T5, α2β3γ2 GABAA/BzR (Homo sapiens, UniProt P18507+P47869); test: Competition binding to HEK cell membranes, α2β3γ2; set-up: expressed in transfected cells; conditions: Table 2; data from three separate laboratories; read-out: Affinity Ki α2
# α3β3γ2 GABAA/BzR [7] = target: T6, α3β3γ2 GABAA/BzR (Homo sapiens, UniProt P18507+P34903); test: Competition binding to HEK cell membranes, α3β3γ2; set-up: expressed in transfected cells; conditions: Table 2; data from three separate laboratories; read-out: Affinity Ki α3
# α5β3γ2 GABAA/BzR = α5β3γ2 GABAA/BzR (Homo sapiens, UniProt P18507+P31644); test: Competition binding to HEK cell membranes, α5β3γ2; set-up: expressed in transfected cells; conditions: Affinity Ki α5
# α1β3γ2 GABAA/BzR [8] = target: T4, α1β3γ2 GABAA/BzR; set-up: expressed in transfected cells; host or cells: LTK cells (given for XLi-093 only); conditions: Figure 4, read-out: Ki α1, cited from earlier work
# α2β3γ2 GABAA/BzR [9] = target: T5, α2β3γ2 GABAA/BzR; set-up: expressed in transfected cells; host or cells: LTK cells (given for XLi-093 only); conditions: Figure 4, read-out: Ki α2, cited from earlier work
# α3β3γ2 GABAA/BzR [10] = target: T6, α3β3γ2 GABAA/BzR; set-up: expressed in transfected cells; host or cells: LTK cells (given for XLi-093 only); conditions: Figure 4, read-out: Ki α3, cited from earlier work
# α2β3γ2 BzR/GABA(A) = conditions: Figure 1; LTK cells; read-out: Binding affinity α2; cited from earlier work
# α3β3γ2 BzR/GABA(A) = conditions: Figure 1; LTK cells; read-out: Binding affinity α3; cited from earlier work
# α4β3γ2 BzR/GABA(A) = conditions: Figure 1; LTK cells; read-out: Binding affinity α4; cited from earlier work
# α5β3γ2 BzR/GABA(A) = conditions: Figure 1; LTK cells; read-out: Binding affinity α5; cited from earlier work
# α6β3γ2 BzR/GABA(A) = conditions: Figure 1; LTK cells; read-out: Binding affinity α6; cited from earlier work
# α1β2γ2 GABAA receptor = target: T7, α1β2γ2 GABAA receptor (Homo sapiens, UniProt P14867+P18507); test: Radioligand binding (McKernan and Atack), α1β2γ2; conditions: Table 3; αxβ2γ2; means of two determinations; read-out: Binding affinity α1
# T7 construct: expressed in transfected cells; host or cells: HEK cells
# Method: (§1) Transfected HEK cells (beta2 gamma2 and desired alpha subtype) were harvested into phosphate-buffered saline, centrifuged at 3,000 g, and stored at −70°C until required. On the day of the assay, pellets were thawed and resuspended in sufficient volume of 50 mM Tris/acetate (pH 7.4 at 4°C) to give a total binding of approximately 1500–2000 dpm. […] Total assay volume was 0.5 mL and assays were carried out in 96-well plates and incubation time started by the addition of 0.1 mL of resuspended cell membranes. Following incubation for 1 hour at 4°C, assays were terminated by filtration through GF/B filters, washed with 10 mL ice cold buffer, dried, and then counted using a liquid scintillation counter. […] We have previously reported the synthesis of the following.
# α2β2γ2 GABAA receptor = target: T8, α2β2γ2 GABAA receptor (Homo sapiens, UniProt P18507+P47869); test: Radioligand binding (McKernan and Atack), α2β2γ2; conditions: Table 3; αxβ2γ2; means of two determinations; read-out: Binding affinity α2
# T8 construct: expressed in transfected cells; host or cells: HEK cells
# Method: as §1
# α3β2γ2 GABAA receptor = target: T9, α3β2γ2 GABAA receptor (Homo sapiens, UniProt P18507+P34903); test: Radioligand binding (McKernan and Atack), α3β2γ2; conditions: Table 3; αxβ2γ2; means of two determinations; read-out: Binding affinity α3
# T9 construct: expressed in transfected cells; host or cells: HEK cells
# Method: as §1
# α4β2γ2 GABAA receptor = target: T10, α4β2γ2 GABAA receptor (Homo sapiens, UniProt P18507+P48169); test: Radioligand binding (McKernan and Atack), α4β2γ2; conditions: Table 3; αxβ2γ2; means of two determinations; read-out: Binding affinity α4
# T10 construct: expressed in transfected cells; host or cells: HEK cells
# Method: as §1
# α5β2γ2 GABAA receptor = target: T11, α5β2γ2 GABAA receptor (Homo sapiens, UniProt P18507+P31644); test: Radioligand binding (McKernan and Atack), α5β2γ2; conditions: Table 3; αxβ2γ2; means of two determinations; read-out: Binding affinity α5
# T11 construct: expressed in transfected cells; host or cells: HEK cells
# Method: as §1
# α6β2γ2 GABAA receptor = target: T12, α6β2γ2 GABAA receptor (Homo sapiens, UniProt P18507+Q16445); test: Radioligand binding (McKernan and Atack), α6β2γ2; conditions: Table 3; αxβ2γ2; means of two determinations; read-out: Binding affinity α6
# T12 construct: expressed in transfected cells; host or cells: HEK cells
# Method: as §1
compound,measurement,setting,value
"CCCOc1cc2c(cn1)[nH]c1ccccc12.Cl [3 PBC, 3-propoxy-β-carboline hydrochloride]",Ki,α4β3γ2 GABAA/BzR,1000 nM
same,rate at which rats self-administrated alcohol,[1]; alcohol preferring and HAD rats,reduce the rate
same,sucrose self-administration,[1],little or no effect
same,activity in baboons,baboons,active
same,modulation,[2]; Supplement Table 1,antagonist
same,pharmacological properties compared with classical benzodiazepine receptor antagonists,[2],near GABA neutral antagonists
same,Ki,α6β3γ2 GABAA/BzR [3]; Ki α6,1000 nM
same,Ki,"α6β3γ2 GABAA/BzR [4]; Figure 33, αxβ3γ2, read-out: Affinity Ki α6",> 1000 nM
COCc1ncn2c1CN(C)C(=O)c1cc(Cl)ccc1-2 [PWZ-029 (1)],latency to reach the hidden platform (memory probe trials),AD rat model,significant decrease in the latency to reach the hidden platform
same,modulation at the α1-subunit,α1β3γ2 GABAA receptor; 0.1 μM,little or no effect
same,efficacy type at the α1 subunit,"α1β3γ2 GABAA receptor; oocytes, Sieghart et al.",very weak agonist activity
same,modulation at the α2-subunit,α2β3γ2 GABAA receptor; 0.1 μM,little or no effect
same,efficacy type at the α2 subunit,"α2β3γ2 GABAA receptor; oocytes, Sieghart et al.",very weak agonist activity
same,modulation at the α3-subunit,α3β3γ2 GABAA receptor; 0.1 μM,little or no effect
same,efficacy type at the α3 subunit,"α3β3γ2 GABAA receptor; oocytes, Sieghart et al.",very weak agonist activity
same,efficacy type at the α5-subunit,α5β3γ2 GABAA receptor,negative allosteric modulator
same,modulation at the α5-subunit,α5β3γ2 GABAA receptor,moderate negative modulation
same,scopolamine-induced memory impairment,mice,potently reversed
same,"recognition memory deficit induced by 0.3 mg/kg scopolamine, 1 h delay",rats; 2 mg/kg,successfully reversed the deficit in recognition memory
same,"object recognition, 24 h delay","rats; 2, 5 and 10 mg/kg",improved object recognition
same,ORD “difficult” trials,rhesus monkeys; i.v.,increasing dose-dependent curve for successful trials
same,ORD “mixed” trials versus vehicle,rhesus monkeys; i.v.,no significant results
same,"ORD, cholinergic deficits induced by scopolamine",rhesus monkeys; scopolamine 0.01 mg/kg,dose-dependently reverse the cholinergic deficits
same,Ki,α1β3γ2 GABAA/BzR [5],> 300 nM and 920 nM and 362 nM
same,Ki,α2β3γ2 GABAA/BzR [6],> 300 nM and 180 nM
same,Ki,α3β3γ2 GABAA/BzR [7],> 300 nM and 328 nM
same,Ki,α5β3γ2 GABAA/BzR,38.8 nM and 30 nM and 6 nM
same,Ki,α6β3γ2 GABAA/BzR [3]; Affinity Ki α6,> 300 nM
same,Ki,α1β3γ2 GABAA/BzR [8]; listed as 1a,> 300 nM
same,Ki,α1β3γ2 GABAA/BzR [8]; listed as 1c,362 nM
same,Ki,α2β3γ2 GABAA/BzR [9]; listed as 1a,> 300 nM
same,Ki,α2β3γ2 GABAA/BzR [9]; listed as 1c,180 nM
same,Ki,α3β3γ2 GABAA/BzR [10]; listed as 1a,> 300 nM
same,Ki,α3β3γ2 GABAA/BzR [10]; listed as 1c,328 nM
same,Ki,α6β3γ2 GABAA/BzR [4]; read-out: Ki α6,> 300 nM
C#Cc1ccc2c(c1)C(=O)N(C)Cc1c(C(=O)OCC)ncn1-2 [RY-80 (3)],Ki,α2β3γ2 BzR/GABA(A),21.4 nM
same,Ki,α3β3γ2 BzR/GABA(A),25.8 nM
same,Ki,α4β3γ2 BzR/GABA(A),5.3 nM
same,Ki,α5β3γ2 BzR/GABA(A),0.49 nM
same,Ki,α6β3γ2 BzR/GABA(A),28.8 nM
"C#Cc1ccc2c(c1)C(c1ccccc1)=N[C@H](C)c1c(C(=O)OCC)ncn1-2 [SH-053-R-CH3, (15)]",Ki,α1β2γ2 GABAA receptor,2030 nM
same,Ki,α2β2γ2 GABAA receptor,2380 nM
same,Ki,α3β2γ2 GABAA receptor,1180 nM
same,Ki,α4β2γ2 GABAA receptor,> 5 µM
same,Ki,α5β2γ2 GABAA receptor,949 nM
same,Ki,α6β2γ2 GABAA receptor,> 5 µM
"C#Cc1ccc2c(c1)C(c1ccccc1)=N[C@@H](C)c1c(C(=O)OCC)ncn1-2 [SH-053-S-CH3, (16)]",Ki,α1β2γ2 GABAA receptor,1670 nM
same,Ki,α2β2γ2 GABAA receptor,1260 nM
same,Ki,α3β2γ2 GABAA receptor,1250 nM
same,Ki,α4β2γ2 GABAA receptor,> 5 µM
same,Ki,α5β2γ2 GABAA receptor,206 nM
same,Ki,α6β2γ2 GABAA receptor,> 5 µM
